# In patent publication WO2019242687A1, “1,3-dioxane-4,6-dione compound, and preparation method, pharmaceutical composition, and application thereof” (Shanghai Institute of Materia Medica of CAS, priority 2018, dated 2018):
# Changes are numbered by the printed parent chain. Entries after “also recorded” stand apart in the source; their conditions may differ.
# Key:
# SIRT1 N346A = target: T1, SIRT1 N346A (Homo sapiens, UniProt Q96EB6, N346A); test: Inhibitory constant on SIRT1 mutant N346A; assay type: biochemical
# T1 construct: made in house
# T1 sequence (Q96EB6 1-747 N346A): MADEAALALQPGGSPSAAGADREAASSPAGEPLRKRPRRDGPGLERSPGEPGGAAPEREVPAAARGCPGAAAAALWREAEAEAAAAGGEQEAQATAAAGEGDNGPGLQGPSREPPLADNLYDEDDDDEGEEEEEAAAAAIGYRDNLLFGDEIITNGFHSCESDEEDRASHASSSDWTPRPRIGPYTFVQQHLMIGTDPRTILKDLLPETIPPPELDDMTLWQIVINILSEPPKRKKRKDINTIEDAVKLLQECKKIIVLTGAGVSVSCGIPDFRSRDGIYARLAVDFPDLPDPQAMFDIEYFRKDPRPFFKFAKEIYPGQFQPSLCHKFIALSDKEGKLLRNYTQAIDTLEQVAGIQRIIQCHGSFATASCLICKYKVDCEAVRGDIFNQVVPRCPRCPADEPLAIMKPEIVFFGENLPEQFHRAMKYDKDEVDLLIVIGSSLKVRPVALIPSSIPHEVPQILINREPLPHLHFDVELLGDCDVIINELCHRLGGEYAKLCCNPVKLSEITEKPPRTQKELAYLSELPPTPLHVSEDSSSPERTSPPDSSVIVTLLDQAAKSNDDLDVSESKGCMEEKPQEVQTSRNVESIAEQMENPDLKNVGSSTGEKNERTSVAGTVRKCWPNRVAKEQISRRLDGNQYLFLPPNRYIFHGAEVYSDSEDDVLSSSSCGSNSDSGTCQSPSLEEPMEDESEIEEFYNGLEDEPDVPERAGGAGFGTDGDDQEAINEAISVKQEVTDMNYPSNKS
# SIRT1 [1] = target: T2, SIRT1 (Homo sapiens, UniProt Q96EB6); test: SIRT1 enzyme activity test (deacetylase inhibition); assay type: biochemical
# T2 sequence (Q96EB6 1-747): T1 sequence (Q96EB6 1-747 N346A) with A346N
# [2] = tested on: p53 acetylation levels in SH-SY5Y human neuroblastoma cells; test: Effect of compounds on p53 acetylation level in cells (Western blot); assay type: cell-based; conditions: ATRA-induced differentiation, compound 10 μM, 2 h, Figure 5
# SIRT1 [3] = target: T2, SIRT1; test: Enzyme kinetic reaction test (inhibition type, Michaelis-Menten and Lineweaver-Burk plots); assay type: biochemical
# [4] = target: T3, mini-hSIRT1 protein (SIRT1 Cy5) (Homo sapiens, UniProt Q96EB6); test: Microscale thermophoresis (MST) binding experiment
# T3 sequence (Q96EB6 with tags, fused parts or gaps limits assumed): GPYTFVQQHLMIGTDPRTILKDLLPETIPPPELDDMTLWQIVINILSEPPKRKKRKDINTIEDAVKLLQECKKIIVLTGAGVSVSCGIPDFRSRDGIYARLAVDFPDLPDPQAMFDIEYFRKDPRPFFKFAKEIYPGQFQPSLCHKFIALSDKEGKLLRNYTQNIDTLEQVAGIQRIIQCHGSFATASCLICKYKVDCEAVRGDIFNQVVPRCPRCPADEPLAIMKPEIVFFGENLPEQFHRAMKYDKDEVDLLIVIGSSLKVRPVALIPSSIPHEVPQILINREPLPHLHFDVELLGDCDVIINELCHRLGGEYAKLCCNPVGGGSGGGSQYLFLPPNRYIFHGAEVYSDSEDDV
# [5] = fixed Abz polypeptide, with increasing S3 concentration
# [6] = fixed NAD+, with increasing S3 concentration
compound,measurement,setting,value
"COc1cc(C=C2C(=O)OC(c3ccccc3)OC2=O)cc(Br)c1O (centres unmarked) [Compound S3, 5-(3-bromo-4-hydroxy-5-methoxybenzylidene) -2-phenyl-1,3-dioxane-4,6-dione]",Ki,SIRT1 N346A; mutant N346A,2470 nM
same,sensitivity of mutant protein to compound S3,SIRT1 N346A; mutation of residue 346 (so in the source),敏感性降低
same,concentration dependence of SIRT1 inhibition,"SIRT1 [1]; Figure 1, in vitro",以浓度依赖性方式抑制SIRT1酶活; also recorded: inhibits SIRT1 activity in a concentration-dependent manner
same,IC50,"SIRT1 [1]; Table 2, 1 μM SIRT1, 500 μM NAD+, 10 μM substrate peptide, 37 °C, 30 min",1310 ± 260 nM
same,Inhibition of SIRT1 deacylation (IC50),"SIRT1 [1]; Table 3, SITR1 [sic], 1 μM SIRT1, 500 μM NAD+, 10 μM substrate peptide",1.31 ± 0.26
same,effect on decrease of p53 acetylation level,[2],抑制ATRA诱导的SH-SY5Y细胞分化过程中p53乙酰化水平降低
same,apparent Michaelis constant Km′ for NAD+,SIRT1 [3]; [5],不变
same,"initial velocity V0, NAD+ varied",SIRT1 [3]; [5],减小
same,apparent Michaelis constant Km′ for Abz polypeptide,SIRT1 [3]; [6],减小
same,"initial velocity V0, substrate Abz polypeptide varied",SIRT1 [3]; [6],减小
same,type of inhibition toward NAD+,"SIRT1 [3]; fixed acetylated peptide 30 μM, varied NAD+ 31.25-1000 μM, 0.5 μM SIRT1",非竞争性抑制; also recorded: NAD +的非竞争性抑制剂
same,binding site of compound on SIRT1 relative to substrate polypeptide and NAD+ sites,SIRT1 [3]; inferred from kinetics,可能在底物多肽的结合位点; also recorded: 不在NAD +的结合位点
same,type of inhibition toward NAD+,"[4]; MST, Figure 3",non-competitive inhibitor of NAD +
same,type of inhibition/binding toward Abz polypeptide,"[4]; MST, Figure 3",competitive inhibitor of Abz polypeptide; also recorded: competitively binds to the binding site of the substrate polypeptide Abz
same,Kd of binding to SIRT1 (change),[4]; with 500 μM Abz polypeptide,increased
same,"binding curve with SIRT1 protein (shift), with Abz polypeptide",[4]; with 500 μM Abz polypeptide,shifted to the right
same,"binding curve with SIRT1 protein (shift), with NAD+",[4]; with 5 mM NAD+,did not change significantly
